10 compounds from patent US6833456B2, “Indolyl-urea derivatives of thienopyridines useful as antiangiogenic agents, and methods for their use” (Agouron Pharmaceuticals, Inc., priority 2002, dated 2004) can be followed below.

“And” between values parts separate entries of the source, which are not always exact repeats. Identical values can stand only once. A value given as a limit tells only on which side of the number the result lay.

One data set in a line: Mouse PK assay. Format: in vivo, B6 female mice. As to conditions: po; for AUC / Cmax: female, B6, mouse, plasma, 50 mg/kg; for Cmax: p.o., read-out: Mouse Cmax, po ng-h/mL. Put shortly: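 Plasma levels were measured by HPLC with UV detection after acetonitrile precipitation, using extracted standards, in blood taken up to 4 h (0.5, 1, 2, 4 h) post-dose. Dosing: 50 mg/kg orally or intraperitoneally to two groups of four female B6 mice, vehicle PEG 400:acidified H2O 30:70 suspension.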

Data set [1] is described as follows: Human liver microsome (HLM) assay. Format: in vitro ADME. The following applies: human liver microsomes. Here is the method:
Compound metabolism in human liver microsomes was measured by LC-MS analytical assay procedures as follows. First, human liver microsomes (HLM) were thawed and diluted to 5 mg/mL with cold 100 mM potassium phosphate (KPO4) buffer. Appropriate amounts of KPO4 buffer, NADPH-regenerating solution (containing B-NADP, glucose-6-phosphate, glucose-6-phosphate dehydrogenase, and MgCl2), and HLM were preincubated in 13×100 mm glass tubes at 37° C. for 10 min. (3 tubes per test compound—triplicate). Test compound (5 μM final) was added to each tube to initiate reaction and was mixed by gentle vortexing, followed by incubation at 37° C. […] Samples were centrifuged at 4000 rpm for 20 min. to precipitate proteins and salt (Beckman Allegra 6KR, S/N ALK98DO6, #634). Supernatant was transferred to new 12×75 mm glass tubes and evaporated by Speed-Vac centrifugal vacuum evaporator. Samples were reconstituted in 200 μL 0.1% formic acid/acetonitrile (90/10) and vortexed vigorously to dissolve. The samples were then transferred to separate polypropylene microcentrifuge tubes and centrifuged at 14000×g for 10 min. (Fisher Micro 14, S/N M0017580). […]
The combined compound samples were injected into the LC-MS system, composed of a Hewlett-Packard HP1100 diode array HPLC and a Micromass Quattro II triple quadruple mass spectrometer operating in positive electrospray SIR mode (programmed to scan specifically for the molecular ion of each test compound). Each test compound peak was integrated at each timepoint. […]
Background: Liver microsomes are vesicles of endoplasmic reticulum, rich in cytochrome P450 enzymes.

Data set [2] concerns the target T1, unphosphorylated VEGF-R2Δ50 (FLVK) (Homo sapiens, UniProt P35968, DEL940-989/E990V).
T1 construct: VEGF-R2Δ50 contains residues 806-939 and 990-1171; made in house; host or cells: baculovirus/insect cell system
Kind of data set: VEGF-R2 coupled spectrophotometric assay, unphosphorylated construct (FLVK). The following applies: for inhibition at 0.05 µM: percent inhibition at 50 nM. Format: biochemical. The gist of the method: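 Continuous coupled assay (PEP, PK, LDH; NADH loss at 340 nm) in 200 mM HEPES pH 7.5 with 3 mM ATP, 20 mM poly(E4Y1), 60 mM MgCl2 plus 2 mM MnCl2, started with 5-40 nM non-autophosphorylated VEGF-R2Δ50. Ki values from activity across compound concentrations, Morrison fit.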

Data set [3] deals with human umbilical vein endothelial cells (HUVEC). Description: HUVEC+VEGF proliferation assay. Format: cell-based. As to conditions: Homo sapiens, HUVEC, 72 h, VEGF 6 ng/mL, MTT. The gist of the method: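 Proliferation driven by VEGF (final 6 ng/mL) was quantified by MTT reduction (A595) 72 h after stimulation. Passage 3-4 HUVEC were starved for 24 h in 1% FBS F12K and given test agent 1 h before VEGF, with DMSO at 0.1% final.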

The target in another data set is T2, PDGFRβ (Homo sapiens, UniProt P09619).
T2 construct: expressed in transfected cells; host or cells: porcine aorta endothelial (PAE) cells
Description: PAE-PDGFRβ phosphorylation in PAE-PDGFRB cells assay. The following applies: PAE cells overexpressing human PDGFRβ, PDGF-BB stimulated; read-out: PAE PDGFR autophos IC50. Type of data set: cell-based. Put shortly: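 PAE cells overexpressing human PDGFRβ, serum-starved 16 h (0.1% FBS), compound 1 h at 37° C (0.5% DMSO), then 1 μg/mL PDGF-BB with 2 mM Na3VO4 for 8 min. Receptor captured by anti-PDGFRβ, phosphotyrosine detected by HRP-PY20/TMB at 450 nm; IC50 by four-parameter fit.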

The test system of another data set is HUVEC. Description: bFGF HUVEC proliferation. Type of data set: cell-based, human. As to conditions: Homo sapiens, HUVEC, bFGF stimulated HUVEC.
For the next data set, the target named is T3, KDR (VEGFR2) (Homo sapiens, UniProt P35968).
T3 construct: expressed in transfected cells; host or cells: porcine aorta endothelial (PAE) cells
Description: KDR (VEGFR2) phosphorylation in PAE-KDR cells assay. Type of data set: cell-based. As to conditions: PAE cells overexpressing human KDR, VEGF stimulated; read-out: PAE KDR autophos IC50. The gist of the method:
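PAE cells overexpressing human KDR, serum-starved 16 h (0.1% FBS), treated with compound 1 h at 37° C (0.5% DMSO), then stimulated 8 min with 500 ng/ml VEGF plus 2 mM Na3VO4. Lysate KDR phosphotyrosine measured by capture ELISA (anti-pY HRP, 450 nm); IC50 by four-parameter fit.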

T1 sequence (P35968 with tags, fused parts or gaps DEL940-989/E990V limits assumed): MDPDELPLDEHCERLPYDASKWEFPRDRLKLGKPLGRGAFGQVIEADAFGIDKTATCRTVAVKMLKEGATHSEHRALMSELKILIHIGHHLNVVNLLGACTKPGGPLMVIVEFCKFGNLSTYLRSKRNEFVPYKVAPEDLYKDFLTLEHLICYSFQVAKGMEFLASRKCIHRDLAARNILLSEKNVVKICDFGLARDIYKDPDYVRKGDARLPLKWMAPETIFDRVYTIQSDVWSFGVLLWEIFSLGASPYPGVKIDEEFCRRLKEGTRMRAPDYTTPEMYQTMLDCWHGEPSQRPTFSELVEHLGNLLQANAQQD
T3 sequence (P35968 20-1356): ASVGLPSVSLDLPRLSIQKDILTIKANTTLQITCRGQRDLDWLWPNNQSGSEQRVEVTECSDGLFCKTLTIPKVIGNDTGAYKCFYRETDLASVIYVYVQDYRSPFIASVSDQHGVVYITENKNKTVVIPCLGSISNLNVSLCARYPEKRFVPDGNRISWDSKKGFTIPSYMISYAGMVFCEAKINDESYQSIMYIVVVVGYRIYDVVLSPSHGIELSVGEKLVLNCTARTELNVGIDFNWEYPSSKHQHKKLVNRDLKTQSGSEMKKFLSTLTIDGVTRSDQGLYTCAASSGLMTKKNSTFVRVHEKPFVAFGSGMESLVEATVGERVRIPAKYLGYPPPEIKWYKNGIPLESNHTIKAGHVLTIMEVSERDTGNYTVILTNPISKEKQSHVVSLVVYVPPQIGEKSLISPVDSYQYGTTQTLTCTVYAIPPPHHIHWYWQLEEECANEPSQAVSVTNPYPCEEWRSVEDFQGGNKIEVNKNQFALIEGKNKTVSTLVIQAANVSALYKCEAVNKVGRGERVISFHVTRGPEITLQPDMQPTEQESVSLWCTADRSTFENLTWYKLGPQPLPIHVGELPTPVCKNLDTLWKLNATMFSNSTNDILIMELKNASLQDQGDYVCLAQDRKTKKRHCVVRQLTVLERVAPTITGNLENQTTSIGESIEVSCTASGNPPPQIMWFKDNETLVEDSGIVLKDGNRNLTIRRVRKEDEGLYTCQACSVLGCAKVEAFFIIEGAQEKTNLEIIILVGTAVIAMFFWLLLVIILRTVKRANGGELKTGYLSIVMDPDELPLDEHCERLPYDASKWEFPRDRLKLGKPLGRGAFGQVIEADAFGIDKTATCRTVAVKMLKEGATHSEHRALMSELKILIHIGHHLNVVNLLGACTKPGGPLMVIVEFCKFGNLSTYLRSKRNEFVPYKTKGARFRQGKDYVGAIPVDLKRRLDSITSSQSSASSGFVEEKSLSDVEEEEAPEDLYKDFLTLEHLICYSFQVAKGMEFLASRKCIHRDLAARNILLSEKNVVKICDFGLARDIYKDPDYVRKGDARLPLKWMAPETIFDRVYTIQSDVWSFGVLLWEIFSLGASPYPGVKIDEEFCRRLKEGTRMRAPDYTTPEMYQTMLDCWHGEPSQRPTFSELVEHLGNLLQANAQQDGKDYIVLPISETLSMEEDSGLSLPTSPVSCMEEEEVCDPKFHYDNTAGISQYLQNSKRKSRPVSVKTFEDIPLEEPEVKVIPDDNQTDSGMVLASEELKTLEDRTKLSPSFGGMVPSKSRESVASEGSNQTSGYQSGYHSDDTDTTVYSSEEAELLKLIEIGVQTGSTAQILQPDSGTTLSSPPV
T2 sequence (P09619 33-1106): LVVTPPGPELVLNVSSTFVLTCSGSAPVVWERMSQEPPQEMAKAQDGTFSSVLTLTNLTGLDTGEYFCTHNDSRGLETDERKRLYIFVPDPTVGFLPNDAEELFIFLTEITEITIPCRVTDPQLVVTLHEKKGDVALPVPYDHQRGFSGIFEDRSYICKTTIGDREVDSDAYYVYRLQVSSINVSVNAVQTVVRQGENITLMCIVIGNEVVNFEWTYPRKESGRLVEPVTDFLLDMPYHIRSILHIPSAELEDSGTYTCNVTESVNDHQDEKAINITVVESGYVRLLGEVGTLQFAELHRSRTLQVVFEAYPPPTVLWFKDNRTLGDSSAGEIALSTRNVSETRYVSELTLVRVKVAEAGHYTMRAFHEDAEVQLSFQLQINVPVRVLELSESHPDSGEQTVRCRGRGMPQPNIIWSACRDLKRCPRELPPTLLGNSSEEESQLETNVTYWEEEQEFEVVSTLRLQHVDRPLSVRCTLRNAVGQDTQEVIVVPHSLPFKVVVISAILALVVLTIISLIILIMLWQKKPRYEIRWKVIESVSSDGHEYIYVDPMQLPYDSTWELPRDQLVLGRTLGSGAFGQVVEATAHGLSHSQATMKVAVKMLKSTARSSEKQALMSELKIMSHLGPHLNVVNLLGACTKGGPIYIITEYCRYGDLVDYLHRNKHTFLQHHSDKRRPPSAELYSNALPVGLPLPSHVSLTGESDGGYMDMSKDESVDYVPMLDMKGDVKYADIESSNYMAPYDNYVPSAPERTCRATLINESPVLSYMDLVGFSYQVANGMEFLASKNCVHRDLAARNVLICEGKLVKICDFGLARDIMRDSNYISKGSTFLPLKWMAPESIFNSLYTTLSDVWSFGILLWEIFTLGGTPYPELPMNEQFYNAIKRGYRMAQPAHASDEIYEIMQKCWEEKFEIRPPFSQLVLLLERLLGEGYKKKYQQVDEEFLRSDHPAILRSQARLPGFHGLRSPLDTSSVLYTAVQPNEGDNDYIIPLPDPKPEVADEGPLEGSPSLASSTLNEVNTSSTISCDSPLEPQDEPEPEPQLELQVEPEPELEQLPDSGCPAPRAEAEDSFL

Turning to `Cc1cc2cc(Nc3ccnc4cc(-c5nccn5C)sc34)ccc2n1C(=O)NC(C)C` [Example 2f, 5-(2-[1-methyl-1H-imidazol-2-yl]thieno[3,2-b]pyridin-7-ylamino)-2-methylindole-1-carboxylic acid isopropylamide], in “Mouse PK assay”, the AUC was determined as 10600 ng·h/mL; the Cmax amounted to 7700 ng/mL; the “Mouse Cmin, po” value stood at 163 ng/mL. Moreover, in data set [1], the “% remain (HLM-NADPH, 0.5 h)” value stood at 70.9% and the “% remain (HLM-UDPGA, 0.5 h)” value is 119.4%. For the same compound, at 0.05 µM the inhibition in data set [2] was 2%.
Take `Cc1cc2cc(Nc3ccnc4cc(C(=O)N5CCC[C@H]5CO)sc34)ccc2n1C(=O)NC(C)C` [Example 2g, 5-(2-[(S)-2-(hydroxymethyl)pyrrolidine-1-carbonyl]thieno[3,2-b]pyridin-7-ylamino)-2-methylindole-1-carboxylic acid isopropylamide]: in the data set “Mouse PK assay”, the AUC came to 542 ng·h/mL; the Cmax turned out to be 252 ng/mL; the “Mouse Cmin, po” value was 6 ng/mL. For the same compound, in data set [1], the “% remain (HLM-NADPH, 0.5 h)” value is listed as 106% and the “% remain (HLM-UDPGA, 0.5 h)” value was 113.4%. In data set [3], the IC50 was above 33.3 nM. In data set [2], this compound came in with a Ki of 29.6 nM and an inhibition at 0.05 µM of 82%.
Take `CO[C@@H]1CCN(C(=O)c2cc3nccc(Oc4ccc5c(c4)cc(C)n5C(=O)NC4CC4)c3s2)C1` [Example 4k, 5-[2-(3R-Methoxy-pyrrolidine-1-carbonyl)-thieno[3,2-b]pyridin-7-yloxy]-2-methyl-indole-1-carboxylic acid cyclopropylamide]: the results for the IC50 at PDGFRβ, in the data set on HUVEC and on KDR (VEGFR2) were 10 nM, 5.8 nM and 0.569 nM, respectively. This compound came in with a Ki in data set [2] of 0.1 nM. Besides, in data set [2], the inhibition at 0.05 µM amounted to 96%.
`COC[C@@H]1CCCN1C(=O)c1cc2nccc(Oc3ccc4c(cc(C)n4C(=O)NC4CC4)c3F)c2s1` [Example 5b]: the IC50 at PDGFRβ is 13.1 nM; in the data set on HUVEC it was 13.6 nM; on KDR (VEGFR2), 0.5 nM. Further, the affinity in data set [2], expressed as Ki, was 0.504 nM. The inhibition at 0.05 µM in data set [2] was found to be 98%.
For `Cc1cc2cc(Oc3ccnc4cc(C(=O)N5CC[C@@H](N(C)C)C5)sc34)ccc2n1C(=O)NCCO` [Example 8l, 5-[(2-{[(3R)-3-(Dimethylamino)pyrrolidin-1-yl]carbonyl}thieno[3,2-b]pyridin-7-yl)oxy]-N-(2-hydroxyethyl)-2-methyl-1H-indole-1-carboxamide], the IC50 is 18.8 nM at PDGFRβ, 63 nM in the data set with HUVEC and 1.5 nM in data set [3]. The same compound came in with a Ki in data set [2] of 0.88 nM. This compound had an inhibition at 0.05 µM in data set [2] of 88%.
For `C#CCNC(=O)n1c(C)cc2cc(Oc3ccnc4cc(C(=O)N5CCC[C@@H]5COC)sc34)ccc21` [Example 8p, 5-[2-(2R-Methoxymethyl-pyrrolidine-1-carbonyl)-thieno[3,2-b]pyridin-7-yloxy]-2-methyl-indole-1-carboxylic acid prop-2-ynylamide] the same measures were 13 nM, 197 nM, 0.137 nM, 0.143 nM and 98%.
In the case of `CCCNC(=O)n1c(C)cc2cc(Oc3ccnc4cc(C(=O)N5CC[C@H](OC)C5)sc34)ccc21` [Example 9d, 5-[2-(3S-Methoxy-pyrrolidine-1-carbonyl)-thieno[3,2-b]pyridin-7-yloxy]-2-methyl-indole-1-carboxylic acid propylamide], the IC50 on PDGFRβ turned out to be 25 nM; in the data set on HUVEC it was 143 nM; on KDR (VEGFR2) it was 1.47 nM. Also, the Ki in data set [2] was determined as 0.228 nM. For the same compound, the inhibition at 0.05 µM in data set [2] came out at 99%.
Regarding `C#CCNC(=O)n1c(C)cc2cc(Oc3ccnc4cc(C(=O)N5CC[C@H](O)C5)sc34)ccc21` [Example 9j, 5-[2-(3S-Hydroxy-pyrrolidine-1-carbonyl)-thieno[3,2-b]pyridin-7-yloxy]-2-methyl-indole-1-carboxylic acid prop-2-ynylamide], the half-inhibitory concentration (IC50) at PDGFRβ is 18 nM and 20 nM; with HUVEC it was 81 nM; in data set [3] it was 0.29 nM. The Ki in data set [2] came out at 0.162 nM. Besides, in data set [2], the inhibition at 0.05 µM turned out to be 97%.
As for `CCC(=O)n1c(C)cc2cc(Oc3ccnc4cc(C(=O)N5CC[C@H](OC)C5)sc34)ccc21` [Example 10a, 2-{[(3S)-3-Methoxypyrrolidin-1-yl]carbonyl}-7-[(2-methyl-1-propionyl-1H-indol-5-yl)oxy]thieno[3,2-b]pyridine], the IC50 turned out to be 21 nM in the data set with HUVEC, 0.79 nM in data set [3] and 1.2 nM on KDR (VEGFR2). In data set [2], this compound yielded a Ki of 4.7 nM. Moreover, the inhibition at 0.05 µM in data set [2] was 64%.
With `CNC(=O)n1ccc2cc(Oc3ccnc4cc(-c5nc(C(C)(C)O)cs5)sc34)ccc21` [Example 31, 5-{2-[4-(1-Hydroxy-1-methyl-ethyl)-thiazol-2-yl]-thieno[3,2-b]pyridin-7-yloxy}-indole-1-carboxylic acid methylamide], the IC50 was 8.1 nM and 6.3 nM on PDGFRβ; 101 nM with HUVEC; 0.16 nM in data set [3]. This compound also came in with a Ki in data set [2] of 0.462 nM. This compound also showed an inhibition at 0.05 µM in data set [2] of 97%.

A word on the AUC: it is the area under the concentration-time curve, a measure of exposure. A word on the inhibition: it is the change of the read-out against control, counted positive when it falls. Low readings indicate a response near the control, high ones a response far below the control. As usually defined, the IC50 is the concentration that gives 50% inhibition. A word on the Ki: it is a dissociation constant, usually derived from enzyme kinetics or from competition with a known ligand. Low readings indicate tighter binding, high ones weaker binding.
